Three compounds from patent US12180372B2, “Resin composition, optical filter, image display device, solid-state imaging element, and colorant mixture” (FUJIFILM Corporation, priority 2018, dated 2024) can be followed below.

Series [1] is described as follows: Measurement of maximum absorption wavelength of colorant or colorant mixture in chloroform solution. Type of series: physicochemical. Conditions: colorant mixture in chloroform, 1×10^−6 mol/L, 10 mm cell, 23° C. Here is the method: The obtained compound F-3 was dissolved in chloroform (concentration: 1×10^−6 mol/L), and the maximum absorption wavelength […] and molar absorption coefficient (c) of the compound F-3 was measured using a cell having an optical path length of 10 mm and using a spectrophotometer UV-1800PC (manufactured by Shimazu Corporation). The maximum absorption wavelength λmax of the compound F-3 was 679 nm, and the molar absorption coefficient (s) was 355000. The obtained compound F-38 was dissolved in chloroform (concentration: 1×10^−6 mol/L), and the maximum absorption wavelength […] and molar absorption coefficient (ε) of the compound F-38 was measured using a cell having an optical path length of 10 mm and using a spectrophotometer UV-1800PC (manufactured by Shimadzu Corporation). The maximum absorption wavelength λmax of the compound F-38 was 590 nm, and the molar absorption coefficient (ε) was 204000. The obtained compound F-51 was dissolved in chloroform (concentration: 1×10^−6 mol/L), and the maximum absorption wavelength λmax and molar absorption coefficient (ε) of the compound F-51 was measured using a cell having an optical path length of 10 mm and using a spectrophotometer UV-1800 (PC (manufactured by Shimadzu Corporation). The maximum absorption wavelength λmax of the compound F-51 was 589 nm, and the molar absorption coefficient (ε) was 244000. The obtained compound F-75 was dissolved in chloroform (concentration: 1×10^−6 mol/L), and the maximum absorption wavelength λmax and molar absorption coefficient (ε) of the compound F-75 was measured using a cell having an optical path length of 10 mm and using a spectrophotometer t-UV-1800PC (manufactured by Shimadzu Corporation). The maximum absorption wavelength λmax of the compound F-75 was 589 nm, and the molar absorption coefficient (ε) was 221000.

The nature of series [2]: Evaluation of solubility of colorant mixture. Type of series: physicochemical. Conditions: for Evaluation Solubility: added to toluene at 23° C., stirred for 1 hour, visually observed; for solubility in toluene: 23° C. How it is done:
Solubility of the colorant mixture shown in the following table in […] was evaluated. Specifically, the colorant mixture was added to toluene at 23° C., stirred for 1 hour, and the presence or absence of dissolution of the colorant was visually observed and the solubility was evaluated based on the following evaluation standard.

Regarding `CC1=CC(C)=N/C1=C1\C(=O)C(c2[nH]c(C)cc2C)=C1O` [Compound A-3], in series [1], the “λmax (nm)” value is reported as 498 nm. In addition, in series [2], the “Evaluation Solubility” value is “D (solubility was less than 0.1% by mass)” and the solubility in toluene entry is “less than 0.1 % by mass”.
As to `CCN(CC)c1ccc(C2=C([O-])C(=C3C=CC(=[N+](CC)CC)C=C3)C2=O)cc1` [Compound A-21], in series [1], the “λmax (nm)” value was found to be 634 nm. For the same compound, in series [2], the “Evaluation Solubility” value is given as “D (solubility was less than 0.1% by mass)” and the solubility in toluene result is reported as “less than 01 % by mass”.
Take `CCN(CC)c1ccc(C2=C([O-])/C(=C3/C=CC(=[N+](CC)CC)C=C3NC(=O)C(C)(C)CC)C2=O)c(NC(=O)C(C)(C)CC)c1` [Compound A-24]: the “λmax (nm)” value in series [1] is recorded as 673 nm. For the same compound, in series [2], the “Evaluation Solubility” value was “C (solubility was 0.1% by mass or more and less than 0.5% by mass)”; the solubility in toluene entry is given as “less than 0.5 % by mass”.
